Source: paper PMC4503722, “Novel Phenotypic Outcomes Identified for a Public Collection of Approved Drugs from a Publicly Accessible Panel of Assays” (PLoS ONE, 2015)
Where two headings read alike, the source gives them in different places.

Assays:
NCI-H716 cells = assay: cells; type: cell-based, Human; details: for IC50/EC50, hNCI-H716 GLP1 Secretion (assay number 12): concentration response
STC-1 cell line = type: cell-based, mouse; details: for IC50/EC50, mSTC-1 GLP1 Secretion (assay number 13): concentration response

Structure (SMILES)	hNCI-H716 GLP1 Secretion IC50/EC50 (NCI-H716 cells; assay number 12) [µM]	mSTC-1 GLP1 Secretion IC50/EC50 (STC-1 cell line; assay number 13) [µM]	also measured
Cc1cc(N)c2cc(NC(=O)Nc3ccc4nc(C)cc(N)c4c3)ccc2n1 [NCGC00013130-04]	34.2472	> 40	–
CC(=O)OC(C)C[N+](C)(C)C.[Cl-] (stereo not shown) [NCGC00015045-09]	> 40	> 40	–
CC(C)(Oc1ccc(C2CC2(Cl)Cl)cc1)C(=O)O (stereo not shown) [NCGC00015202-08]	> 40	> 40	–
C=Cc1c(C)c2cc3[nH]c(cc4nc(cc5nc(cc1[nH]2)C(C)=C5CCC(=O)O)C(CCC(=O)O)=C4C)c(C)c3C=C [NCGC00015844-10]	19.5523	> 40	–
CN(C(=O)CN(CCO)CC(=O)N(C)C(C)(C)Cc1ccccc1)C(C)(C)Cc1ccccc1 [NCGC00016382-07]	–	–	IC50/EC50, hNCI-H716 GLP1 Secretion (assay number 12) (NCI-H716 cells): 25.0515 µM; IC50/EC50, mSTC-1 GLP1 Secretion (assay number 13) (STC-1 cell line): > 40 µM
Cc1c(NC(C)C)c(=O)n(-c2ccccc2)n1C [NCGC00016735-06]	> 40	> 40	–
CN[C@@H]1[C@H](O)[C@H](NC)[C@H]2O[C@@]3(O)C(=O)C[C@@H](C)O[C@H]3O[C@@H]2[C@H]1O.Cl.Cl [NCGC00017354-07]	> 40	> 40	–
C/C=C(/C(=C/C)c1ccc(O)cc1)c1ccc(O)cc1 [NCGC00018153-10]	–	–	IC50/EC50, hNCI-H716 GLP1 Secretion (assay number 12) (NCI-H716 cells): > 40 µM; IC50/EC50, mSTC-1 GLP1 Secretion (assay number 13) (STC-1 cell line): > 40 µM
CCCCCCCCN[C@@H](C)[C@H](O)c1ccc(SC(C)C)cc1 [NCGC00018301-05]	–	–	IC50/EC50, hNCI-H716 GLP1 Secretion (assay number 12) (NCI-H716 cells): 13.0298 µM; IC50/EC50, mSTC-1 GLP1 Secretion (assay number 13) (STC-1 cell line): > 40 µM
c1ccc2ccccc2c1 [NCGC00090793-05]	20.7685	> 40	–
CC(=O)NO [NCGC00094576-05]	> 40	> 40	–
CCCCC(CC)CN1CN(CC(CC)CCCC)CC(C)(N)C1 (stereo not shown) [NCGC00094819-07]	36.4422	26.5729	–
CCCCCCCCCCCCCCCCCCOCC(O)CO (stereo not shown) [NCGC00095748-04]	> 40	> 40	–
CC1=C(C(=O)O)N2C(=O)[C@@H](NC(=O)[C@H](N)c3ccccc3)[C@H]2SC1 [NCGC00159522-05]	> 40	> 40	–
O=c1oc2ccccc2c(O)c1C(CC(O)c1ccc(-c2ccc(Br)cc2)cc1)c1ccccc1 (stereo not shown) [NCGC00163939-02]	–	–	hNCI-H716 GLP1 Secretion IC50/EC50 (NCI-H716 cells): > 40 µM; mSTC-1 GLP1 Secretion IC50/EC50 (STC-1 cell line): 9.1609 µM
Cc1c(C)n(CCN(C)C)c2ccc(C(=O)OCCN(C)C)cc12 [NCGC00164483-03]	> 40	1.1962	–
CC(C)(O)c1ccccc1CC[C@@H](SCC1(CC(=O)[O-])CC1)c1cccc(/C=C/c2ccc3ccc(Cl)cc3n2)c1.[Na+] [NCGC00164568-04]	20.7101	> 40	–
